The record followed here is patent US12233161B1, “Lipids and lipid nanoparticle formulations” (LONGUIDE BIOPHARMA CORPORATION, priority 2024, dated 2025).

Molecules are shown by their SMILES.

The test system of one data set is mice. The data set is described as follows: In vivo delivery of FLuc-mRNA lipid nanoparticles in mice, in vivo imaging (IVIS). In outline: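 Mice (n=3) received about 75 μL FLuc-mRNA LNP per mouse intramuscularly (rectus femoris), intravenously (tail vein), intraperitoneally or subcutaneously (back). After injection, D-luciferin (200 μL, 15 mg/mL) was given i.p. 10-15 min before IVIS imaging.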

The nature of data set [1]: Particle size and PDI of nucleic acid lipid nanoparticle preparations by dynamic light scattering. It is filed as physicochemical. In outline: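 Size read by DLS after diluting the LNP preparation (approx. 0.04 mg/mL mRNA) in ultrapure water with gentle pipette mixing. The same sample, recovered and diluted further with water, was then used for zeta potential measurement.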

Where [2] appears, read: IM, DMG-PEG2000:DSPC:Chol:compound 1.40:11.15:38.95:48.50, N/P 20, Fluc-mRNA.
The mark [3] stands for this setting: DMG-PEG2000:DSPC:Chol:compound 1.40:11.15:38.95:48.50, N/P 20.
Setting [4] is: IV, organ not given, DMG-PEG2000:DSPC:Chol:compound 1.40:11.15:38.95:48.50, N/P 20, Fluc-mRNA.
The mark [5] stands for this setting: DMG-PEG2000:DSPC:Chol:Lipid 1.40:11.15:38.95:48.50, N/P 30, IV, liver.
The mark [6] stands for this setting: DMG-PEG2000:DSPC:Chol:Lipid 1.40:11.15:38.95:48.50, N/P 30, IV, lung.
Where [7] appears, read: DMG-PEG2000:DSPC:Chol:Lipid 1.40:11.15:38.95:48.50, N/P 30, IV, spleen.
[8] abbreviates: DMG-PEG2000:DSPC:Chol:Lipid 1.50:11.50:52.00:35.00, N/P 18, IV, liver.
The mark [9] stands for this setting: DMG-PEG2000:DSPC:Chol:Lipid 1.50:11.50:52.00:35.00, N/P 18, IV, lung.
The mark [10] stands for this setting: DMG-PEG2000:DSPC:Chol:Lipid 1.50:11.50:52.00:35.00, N/P 18, IV, spleen.
Where [11] appears, read: DMG-PEG2000:DSPC:Chol:Lipid 1.40:11.15:38.95:48.50, N/P 30, mRNA LNP.
The mark [12] stands for this setting: DMG-PEG2000:DSPC:Chol:Lipid 1.50:11.50:52.00:35.00, N/P 18, mRNA LNP.
Setting [13] is: DMG-PEG2000:DSPC:Chol:Lipid 1.00:16.00:48.00:35.00, N/P 18, IV, liver.
Setting [14] is: DMG-PEG2000:DSPC:Chol:Lipid 1.00:16.00:48.00:35.00, N/P 18, IV, lung.
Setting [15] is: DMG-PEG2000:DSPC:Chol:Lipid 1.00:16.00:48.00:35.00, N/P 18, IV, spleen.
The mark [16] stands for this setting: DMG-PEG2000:DSPC:Chol:Lipid 1.50:16.00:17.50:65.00, N/P 45, IV, liver.
Setting [17] is: DMG-PEG2000:DSPC:Chol:Lipid 1.50:16.00:17.50:65.00, N/P 45, IV, lung.
[18] abbreviates: DMG-PEG2000:DSPC:Chol:Lipid 1.50:16.00:17.50:65.00, N/P 45, IV, spleen.
Where [19] appears, read: DMG-PEG2000:DSPC:Chol:Lipid 1.00:16.00:48.00:35.00, N/P 18, mRNA LNP.
The mark [20] stands for this setting: DMG-PEG2000:DSPC:Chol:Lipid 1.50:4.00:69.50:25.00, N/P 18, mRNA LNP.
Setting [21] is: DMG-PEG2000:DSPC:Chol:Lipid 1.50:16.00:17.50:65.00, N/P 45, mRNA LNP.
Setting [22] is: DMG-PEG2000:DSPC:Chol:Lipid 1.77:14.07:49.16:35.00, N/P 30, mRNA LNP.
The mark [23] stands for this setting: DMG-PEG2000:DSPC:Chol:Lipid 1.40:11.15:38.95:48.50, N/P 18, mRNA LNP.
[24] abbreviates: DMG-PEG2000:DSPC:Chol:compound 1.40:11.15:38.95:48.50, N/P 30.

In the case of `CCCCCCCCCCCCOC(=O)C(O)CN(CCOCCOCCN(CC(O)C(=O)OCCCCCCCCCCCC)CC(O)C(=O)OCCCCCCCCCCCC)CC(O)C(=O)OCCCCCCCCCCCC` (centres unmarked) [Compound L0309], the IVIS in the data set on mice (setting [2]) was found to be 3.09E+06; with mice (IV, body, DMG-PEG2000:DSPC:Chol:compound 1.40:11.15:38.95:48.50, N/P 20, Fluc-mRNA), 1.24E+06; with mice (IV, liver, DMG-PEG2000:DSPC:Chol:compound 1.40:11.15:38.95:48.50, N/P 20, Fluc-mRNA), 5.48E+05; in the data set with mice (IV, lung, DMG-PEG2000:DSPC:Chol:compound 1.40:11.15:38.95:48.50, N/P 20, Fluc-mRNA) it was 8.60E+04; in the data set with mice (IV, spleen, DMG-PEG2000:DSPC:Chol:compound 1.40:11.15:38.95:48.50, N/P 20, Fluc-mRNA) it was 1.91E+06. The “% of organ targeting” value in the data set with mice (IV, liver, DMG-PEG2000:DSPC:Chol:compound 1.40:11.15:38.95:48.50, N/P 20) was found to be 21.49%; in the data set on mice (IV, lung, DMG-PEG2000:DSPC:Chol:compound 1.40:11.15:38.95:48.50, N/P 20) it was 3.37%; in the data set on mice (IV, spleen, DMG-PEG2000:DSPC:Chol:compound 1.40:11.15:38.95:48.50, N/P 20), 75.14%. This compound also showed a PDI in data set [1] (setting [3]) of 0.11. For the same compound, the “Particle size (nm)” value in data set [1] (setting [3]) was 180.63 nm.
Take `CCCCCCCCCCNC(=O)C(O)CN(CCOCCN(CC(O)C(=O)NCCCCCCCCCC)CC(O)C(=O)NCCCCCCCCCC)CC(O)C(=O)NCCCCCCCCCC` (centres unmarked) [Compound L0326]: the IVIS in the data set with mice (setting [2]) was 6.75E+05. Moreover, the IVIS with mice (setting [4]) is recorded as 1.02E+06. Besides, in data set [1] (setting [3]), the PDI was found to be 0.14 and the “Particle size (nm)” value turned out to be 103.37 nm.
In the case of `CCCCCCCCCCCCNC(=O)C(O)CN(CCCCCCCN(CC(O)C(=O)NCCCCCCCCCCCC)CC(O)C(=O)NCCCCCCCCCCCC)CC(O)C(=O)NCCCCCCCCCCCC` (centres unmarked) [Compound L0308], the IVIS in the data set with mice (setting [2]) was 9.07E+05. This compound showed an IVIS in the data set with mice (setting [4]) of 1.99E+05. In data set [1] (setting [3]), the PDI is given as 0.10 and the “Particle size (nm)” value is on record as 132.67 nm.
`CCCCCCCCCCCCNC(=O)C(O)CN(CCCN(CCCCO)CCCN(CC(O)C(=O)NCCCCCCCCCCCC)CC(O)C(=O)NCCCCCCCCCCCC)CC(O)C(=O)NCCCCCCCCCCCC` (centres unmarked) [Compound L0282]: the IVIS in the data set on mice (DMG-PEG2000:DSPC:Chol:Lipid 1.40:11.15:38.95:48.50, N/P 30, IM, whole body scan) is listed as 5.98 × 10^6; with mice (DMG-PEG2000:DSPC:Chol:Lipid 1.40:11.15:38.95:48.50, N/P 30, IV, body (whole body scan)) it was 1.50 × 10^7; in the data set with mice (setting [5]), 6.77 × 10^5; with mice (setting [6]) it was 1.50 × 10^7; in the data set with mice (setting [7]) it was 8.93 × 10^6; with mice (DMG-PEG2000:DSPC:Chol:Lipid 1.50:11.50:52.00:35.00, N/P 18, IV, body), 3.77 × 10^6. Moreover, the IVIS in the data set with mice (setting [8]) is reported as 6.44 × 10^5; with mice (setting [9]) it was 7.41 × 10^5; with mice (setting [10]) it was 7.58 × 10^6. Besides, the “% of organ targeting” value was 2.75% in the data set with mice (setting [5]); 60.96% in the data set on mice (setting [6]); 36.29% in the data set with mice (setting [7]); 7.18% in the data set with mice (setting [8]); 8.27% in the data set with mice (setting [9]); 84.55% in the data set on mice (setting [10]). Further, the “tissue-targeting specificity (lung vs spleen depending on molar percentage of compound)” value with mice (certain formulations, Table 2) was “strong tissue-targeting specificity”. For the same compound, the figures for the PDI in data set [1] (setting [11]) and in data set [1] (setting [12]) were 0.15 ± 0.02 and 0.18 ± 0.00, respectively. For the same compound, the Particle size turned out to be 85.38 ± 0.31 nm in data set [1] (setting [11]) and 100.32 ± 0.97 nm in data set [1] (setting [12]).
Take `CCCCCCCCCCCCNC(=O)C(O)CN(CCOCCN(CC(O)C(=O)NCCCCCCCCCCCC)CC(O)C(=O)NCCCCCCCCCCCC)CC(O)C(=O)NCCCCCCCCCCCC` (centres unmarked) [Compound L0306]: the IVIS with mice (setting [2]) is listed as 1.82E+06. For the same compound, the IVIS with mice (setting [4]) came to 7.90E+06. For the same compound, in data set [1] (setting [3]), the PDI is given as 0.14 and the “Particle size (nm)” value stood at 84.96 nm.
For `CCCCCCCCCCCCNC(=O)C(O)CN(CCCN(CCCCCCO)CCCN(CC(O)C(=O)NCCCCCCCCCCCC)CC(O)C(=O)NCCCCCCCCCCCC)CC(O)C(=O)NCCCCCCCCCCCC` (centres unmarked) [Compound L0274], the IVIS in the data set with mice (DMG-PEG2000:DSPC:Chol:Lipid 1.00:16.00:48.00:35.00, N/P 18, IV, body) was 3.12 × 10^8; in the data set on mice (setting [13]), 4.76 × 10^7; in the data set on mice (setting [14]) it was 1.33 × 10^7; with mice (setting [15]), 1.02 × 10^8; with mice (DMG-PEG2000:DSPC:Chol:Lipid 1.50:4.00:69.50:25.00, N/P 18, IM, whole body scan) it was 6.20 × 10^6; with mice (DMG-PEG2000:DSPC:Chol:Lipid 1.50:16.00:17.50:65.00, N/P 45, IV, body), 1.52 × 10^8. Also, the IVIS is 4.17 × 10^6 with mice (setting [16]); 3.19 × 10^8 with mice (setting [17]); 5.58 × 10^7 in the data set with mice (setting [18]); 1.23 × 10^7 in the data set with mice (DMG-PEG2000:DSPC:Chol:Lipid 1.77:14.07:49.16:35.00, N/P 30, IM, whole body scan). Further, the “% of organ targeting” value is on record as 29.22% in the data set with mice (setting [13]); 8.16% in the data set with mice (setting [14]); 62.62% in the data set on mice (setting [15]); 1.10% in the data set with mice (setting [16]); 84.18% in the data set with mice (setting [17]); 14.72% in the data set on mice (setting [18]). In addition, in the data set with mice (certain formulations, Table 2), the “in vivo delivery efficiency as compared to the benchmark compound SM102” value was “superior in vivo delivery efficiency”. The “tissue-targeting specificity (lung vs spleen depending on molar percentage of compound)” value with mice (certain formulations, Table 2) is on record as “strong tissue-targeting specificity”. Also, the PDI in data set [1] (setting [19]) is 0.15 ± 0.01; in data set [1] (setting [20]) it was 0.12 ± 0.00; in data set [1] (setting [21]), 0.47 ± 0.04; in data set [1] (setting [22]), 0.13 ± 0.01. For the same compound, the Particle size in data set [1] (setting [19]) amounted to 93.07 ± 0.26 nm; in data set [1] (setting [20]), 88.12 ± 0.68 nm; in data set [1] (setting [21]) it was 232.87 ± 6.17 nm; in data set [1] (setting [22]), 79.38 ± 0.91 nm.
With `CCCCCCCCCCNC(=O)C(O)CN(C)CCN(C)CCN(C)CC(O)C(=O)NCCCCCCCCCC` (centres unmarked) [Compound L0277], the IVIS with mice (DMG-PEG2000:DSPC:Chol:Lipid 1.40:11.15:38.95:48.50, N/P 18, IM, whole body scan) was 2.60 × 10^5. Moreover, the IVIS with mice (DMG-PEG2000:DSPC:Chol:Lipid 1.40:11.15:38.95:48.50, N/P 18, IV, whole body scan) is given as 4.28 × 10^5. In data set [1] (setting [23]), this compound displayed a PDI of 0.21 ± 0.00 and a Particle size of 99.36 ± 2.16 nm.
As for `CCCCCCCC/C=C\CCCCCCCCNC(=O)C(O)CN(C)CCN(C)CCN(C)CC(O)C(=O)NCCCCCCCC/C=C\CCCCCCCC` (centres unmarked) [Compound L0296], in the data set on mice (setting [2]), the IVIS came to 2.80E+05. The IVIS with mice (setting [4]) was 2.97E+05. Also, in data set [1] (setting [3]), the PDI was found to be 0.16 and the “Particle size (nm)” value is listed as 81.09 nm.
`CCCCCCCCCCNC(=O)C(O)CN(C)CCCN(C)CCCN(C)CC(O)C(=O)NCCCCCCCCCC` (centres unmarked) [Compound L0327] had an IVIS in the data set on mice (IM, DMG-PEG2000:DSPC:Chol:compound 1.40:11.15:38.95:48.50, N/P 30, Fluc-mRNA) of 4.85E+05. In addition, in the data set with mice (IV, organ not given, DMG-PEG2000:DSPC:Chol:compound 1.40:11.15:38.95:48.50, N/P 30, Fluc-mRNA), the IVIS was 2.98E+05. Further, in data set [1] (setting [24]), the PDI is 0.18 and the “Particle size (nm)” value is recorded as 108.57 nm.
